Test results taken from patent publication US20210283098A1, “Methods and Compositions for Treating Pain and Itch” (YISSUM RESEARCH DEVELOPMENT COMPANY OF THE HEBREW …, priority 2018, published 2021).
Like-named read-outs stand apart in the source and are kept apart here.

Assays:
male Sprague-Dawley rats [1] = experiment: Motor function score after peri-sciatic injection; type: in vivo, rat
male Sprague-Dawley rats [2] = experiment: Thermal paw withdrawal latency from radiant heat source (Hargreaves) after peri-sciatic injection; type: in vivo, rat
cannabinoid CB2 receptor = cannabinoid CB2 receptor (Homo sapiens, UniProt P34972); conditions: cited from earlier work
TRPV1-HEK-293 cells [3] = conditions: 1% QX-314, 24 hour treatment; Stueber et al., Anesthesiology, 2016; cited from earlier work
TRPV1-HEK-293 cells [4] = experiment: Cell viability by double staining with PI and FITC annexin V; type: cell-based
Experimental: Similar treatment with 1 μg/μl capsaicin lead, after 24 hours, to death of more than 50% of cells. […] Representative of 5 experiments. FIG. 4B is a bar graph summarizing the number of dead TRPV1-HEK-293 cells without any treatment (white), treated with 2% chloroprocaine (grey) or 1 μg/μl capsaicin (black) at the indicated time points.

TRPV1 channels = biological target: T1, TRPV1 channels (Homo sapiens, UniProt Q8NER1); experiment: Calcium imaging (Fura-2) in HEK-293 cells stably expressing hTRPV1; type: cell-based; conditions: hTRPV1-HEK-293; chloroprocaine 1-5 mM bath applied 120 s; capsaicin short (5 s) focal application
T1 construct: expressed in transfected cells
Experimental: To that end, we performed calcium imaging experiments on HEK-293 cells which stably express TRPV1 and TRPA1 using HEK-293t cells for control. The cells were cultured in standard DMEM with 10% FBS, 100 U/ml penicillin and 100 μg/ml streptomycin and 2 mM Glutamax. 5 μg/ml blasticidin and 0.35% Zeocin were added for stable expression of hTRPV1 and for induction tetracycline 0.1 μg/ml was added to the medium 16 to 24 hours prior to experiments. Cells were cultivated at 37° C. and 5% CO2 and prepared on Poly-D-Lysin coated coverslips and were loaded with Fura-2 AM (stock in DMSO), for 45-60 minutes in a bath solution composed of (in mM): 145 NaCl, 5 KCl, 2 CaCl2, 1 MgCl2, 10 Glucose, 10 HEPES. They were then rinsed for 45-60 minutes for de-esterification of intracellular AM esters. Intracellular [Ca^2+]i was measured fluoroimetrically as ratiometric excitation at 340 nm and 380 nm (ΔF340/380, emission collected at 510 nm) using an inverted microscope (Nikon Eclipse Ti), equipped with an Epi-Fl attachment; perfect focus system (Nikon, Japan) and Exi Aqua monochromator (QImaging). […] A PV-820 Pneumatic PicoPump (WPI) was used for short (5 s) focal applications of capsaicin. Immediately after the puff application, capsaicin was washed out by perfusing with external solution.

[5] = cited from earlier work

T1 sequence (Q8NER1 whole entry): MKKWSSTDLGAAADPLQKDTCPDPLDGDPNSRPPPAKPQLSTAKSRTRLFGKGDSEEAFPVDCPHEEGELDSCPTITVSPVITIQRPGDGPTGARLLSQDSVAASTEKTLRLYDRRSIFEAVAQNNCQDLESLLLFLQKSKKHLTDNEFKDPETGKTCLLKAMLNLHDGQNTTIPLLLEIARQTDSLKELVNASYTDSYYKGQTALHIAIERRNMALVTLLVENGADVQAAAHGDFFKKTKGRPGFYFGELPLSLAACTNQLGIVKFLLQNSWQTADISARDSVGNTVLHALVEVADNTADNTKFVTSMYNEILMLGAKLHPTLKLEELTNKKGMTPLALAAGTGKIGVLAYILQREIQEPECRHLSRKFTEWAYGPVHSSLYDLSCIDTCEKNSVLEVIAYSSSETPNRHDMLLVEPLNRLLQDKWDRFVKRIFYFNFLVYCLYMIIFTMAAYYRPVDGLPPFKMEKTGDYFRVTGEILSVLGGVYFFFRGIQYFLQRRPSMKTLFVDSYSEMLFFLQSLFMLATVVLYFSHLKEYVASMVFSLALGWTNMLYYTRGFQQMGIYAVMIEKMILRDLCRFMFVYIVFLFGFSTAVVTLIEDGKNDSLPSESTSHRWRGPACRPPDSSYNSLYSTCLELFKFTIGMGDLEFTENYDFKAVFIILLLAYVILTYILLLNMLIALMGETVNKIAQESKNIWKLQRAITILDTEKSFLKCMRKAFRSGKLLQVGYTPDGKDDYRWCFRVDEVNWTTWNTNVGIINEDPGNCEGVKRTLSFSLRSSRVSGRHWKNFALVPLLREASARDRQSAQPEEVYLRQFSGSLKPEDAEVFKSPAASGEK
Sequence of cannabinoid CB2 receptor (P34972 whole entry): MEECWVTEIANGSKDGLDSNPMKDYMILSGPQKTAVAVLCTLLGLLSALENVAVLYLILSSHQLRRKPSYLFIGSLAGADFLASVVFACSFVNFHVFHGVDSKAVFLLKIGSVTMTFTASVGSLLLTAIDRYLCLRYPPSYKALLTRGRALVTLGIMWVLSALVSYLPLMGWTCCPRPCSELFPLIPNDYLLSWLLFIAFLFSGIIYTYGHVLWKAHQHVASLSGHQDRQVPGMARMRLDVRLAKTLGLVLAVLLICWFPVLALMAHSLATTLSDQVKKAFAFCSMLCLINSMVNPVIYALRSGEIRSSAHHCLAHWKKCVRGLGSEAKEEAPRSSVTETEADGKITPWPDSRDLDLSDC

C=C(C)[C@@H]1CCC(C)=C[C@H]1c1c(O)cc(CCCCC)cc1O [CBD, 2-[(1R,6R)-6-isopropenyl-3-methylcyclohex-2-en-1-yl]-5-pentylbenzene-1,3-diol]
effect on response to noxious stimuli and motor abilities (male Sprague-Dawley rats [1]; Example 6, 1% CBD alone): did not affect either response to noxious stimuli or motor abilities at all
effect on pain behavior (male Sprague-Dawley rats [2]; Example 6, saline with 1% CBD): did not affect pain behavior
affinity for CB2 receptor (cannabinoid CB2 receptor): very low affinity

CC[N+](CC)(CC)CC(=O)Nc1c(C)cccc1C [QX-314]
cell death (TRPV1-HEK-293 cells [3]): 55%

COc1cc(CNC(=O)CCCC/C=C/C(C)C)ccc1O [capsaicin]
death of cells (TRPV1-HEK-293 cells [4]; 1 μg/μl capsaicin, 24 hours): more than 50%
change in intracellular calcium (Fura-2 fluorescence) (TRPV1 channels): substantial increase in FURA-2 fluorescence

CCN(CC)CCOC(=O)c1ccc(N)cc1Cl [chloroprocaine]
cell death (TRPV1-HEK-293 cells [4]; 2% chloroprocaine, 24 hours treatment): does not cause cell death
duration of motor block (male Sprague-Dawley rats [1]; Example 2, peri-sciatic injection, 0.5% chloroprocaine alone): 30 min
duration of motor block (male Sprague-Dawley rats [1]; Example 6, peri-sciatic, 0.5% chloroprocaine with 1% CBD or with vehicle for CBD): 30 min
change in intracellular calcium (Fura-2 fluorescence) (TRPV1 channels): does not induce calcium influx
differential block (male Sprague-Dawley rats [2]; 0.5% chloroprocaine alone, same motor and pain block): no differential block
effect on response to noxious heat (PWL normalized to baseline) (male Sprague-Dawley rats [2]; Example 2, peri-sciatic, 0.5% chloroprocaine, 1 μg/μl capsaicin, 52° C.): does not affect the response to noxious heat
duration of inhibition of response to noxious heat (male Sprague-Dawley rats [2]; Example 6, 0.5% chloroprocaine with vehicle for CBD): about 30 min

CCCCNc1ccc(C(=O)OCCN(C)C)cc1 [tetracaine]
pKa [5]: 8.2
